Results: patent US7109341B2, “Therapeutic amides” (Wayne State University, priority 2002, dated 2006)
Values joined by “and” are separate entries in the source; they are usually repeats but may differ in a detail not shown here. Identical values can stand only once.

Assays:
[1] = tested on: Pancreatic Ductal Adenocarcinoma 03; test: Evaluation against early stage Pancreatic Ductal Adenocarcinoma 03 in female BDF1 mice (Table 4); type: in vivo, mouse; details: IV
Description: The higher dose requirement for compound 14e may be a disadvantage over compound 11b (Cage 14).

[2] = IV; total dose; cited from earlier work
[3] = tested on: Pancreatic Adenocarcinoma 03; test: Evaluation against early stage Pancreatic Adenocarcinoma 03 in BDF1 male mice (Table 1); type: in vivo, mouse; details: Cage 8; IV; QD 3–5; total 180 mg/kg
[4] = tested on: Mammary Adenocarcinoma 17/ADR; test: Evaluation against early stage Mammary Adenocarcinoma 17/ADR, C3H/He females (Table 3); type: in vivo; details: Cage 4; IV; 56 mg/kg/injection QD-1–5 and 10; total 336 mg/kg
[5] = tested on: Pancreatic Ductal Adenocarcinoma #03; test: Evaluation against early stage Pancreatic Ductal Adenocarcinoma #03, BD1 female mice (Table 2); details: Cage 2; IV; QD3–6, 10; total 300 mg/kg
[6] = Cage 5, 57 mg/kg/injection QD 3–9, total 399 mg/kg
[7] = Cage 6, 38 mg/kg/injection QD 3–9, total 266 mg/kg

For `CC(Oc1ccc(Oc2cnc3ccc(Cl)cc3n2)cc1)C(=O)O` (racemic) [XK469, reference compound], the “% Body Wt Loss at Nadir” value [1, 6] was −6.7%, the “% T/C mass” value [1, 6] was 4.1% and the “Activity Rating” value [1, 6] was “++ (1.3–1.9)”. For the same compound, the “Day of Nadir” value [1, 6] was 8 days, the “Drug Deaths” value [1, 6] was 0/5 and the “Growth Delay” value [1, 6] was 11.5 days. For the same compound, the “Log Kill” value [1, 6] was 1.7, the “Median Tumor Mass on Day 14 (Range)” value [1, 6] was 63 and the “Tumor Free day-37” value [1, 6] was 0/5. For the same compound, the “% Body Wt Loss at Nadir” value [1, 7] was −6.7%, the “% T/C mass” value [1, 7] was 8.3% and the “Activity Rating” value [1, 7] was “++ (1.3–1.9)”. For the same compound, the “Day of Nadir” value [1, 7] was 5 days, the “Drug Deaths” value [1, 7] was 0/5 and the “Growth Delay” value [1, 7] was 9.5 days. For the same compound, the “Log Kill” value [1, 7] was 1.4, the “Median Tumor Mass on Day 14 (Range)” value [1, 7] was 126 and the “Tumor Free day-37” value [1, 7] was 0/5. For the same compound, the “MTD (historical)” value [2] was 450 to 480 mg/kg, the “Day of Wt. Loss Nadir” value [3] was 8 days and the “Drug Deaths (days of death)” value [3] was “no drug deaths and 0/5”. For the same compound, the “Log Kill” value [3] was 1.43 and 1.4, the “Mean Body Wt. Loss in g/mouse” value [3] was −3.6 g/mouse and the “Median tumor burden in mg on day 14 (range)” value [3] was 189 mg. The “Percent Body Wt. Loss” value [3] was −15.5%, the “T-C” value [3] was 9 days and the T/C % [3] was 11%. For the same compound, the “Time to 1000 mg days (range)” value [3] was 20 days, the “Tumor Free on day 21” value [3] was 0/5 and the “day of body weight recovery” value [3] was 13 days. For the same compound, the “% Body Wt Loss at Nadir” value [4] was −7.1%, the “% T/C mass” value [4] was 9% and the “Activity Rating” value [4] was “++++ (Highly active >2.8)”. The “Day of Nadir” value [4] was 8 days, the “Drug Deaths” value [4] was 0/5 and the “Growth Delay” value [4] was 15.5 days. The “Log Kill” value [4] was 4.2, the “Median Tumor Mass on Day 9 (Range)” value [4] was 108 and the “Tumor Free day-21” value [4] was 0/5. The “Activity Rating” value [5] was “++++ (Highly active >2.8)”, the “Day of Wt. Loss Nadir” value [5] was 8 days and the “Drug Deaths (day of death)” value [5] was 0/5. The “Growth Delay” value [5] was 28.1 days, the “Log Cell Kill” value [5] was 3.3 and the “Mean Body Wt. Loss (g/mouse)” value [5] was −3.2 g/mouse. For the same compound, the “Median Tumor Burden in mg on d18 (Range)” value [5] was 64 mg, the T/C % [5] was 4% and the “Time in days to 1000 mg (range)” value [5] was 41.1 days. For the same compound, the “Tumor Free on d 154” value [5] was 1/5 and the “day of full body weight recovery” value [5] was roughly 12 days.
